Several values for one entry are separate records, joined by “and”; a condition that tells them apart may be missing. Equal values may be shown once.
Tested on: prostate, seminal vesicles and levator ani muscle
Experiment: Androgenic and anabolic activity in castrated (ORX) male rats, daily oral gavage for fourteen days
Type: in vivo, rat
Settings: for levator ani muscle weight / prostate weight / seminal vesicle weight / dose that fully maintained or restored levator ani muscle weight (100% of intact): castrated (ORX) rats; for levator ani muscle weight / prostate weight / seminal vesicle weight: oral gavage 14 days; for ED50 in levator ani / ED50 in prostate / ED50 in seminal vesicles / Emax in levator ani / Emax in prostate / Emax in seminal vesicles: ORX rats, nonlinear regression
Method: Male Sprague-Dawley rats weighing approximately 200 g were purchased from Harlan Bioproducts for Science (Indianapolis, Ind.). […] The anabolic and androgenic activity of compound of Formula VIII in intact animals was tested, as well as a dose response evaluation in acutely orchidectomized (ORX) animals. Regenerative effects of the compound of Formula VIII in chronically (9 days) ORX rats was similarly evaluated.
The test article for this study was weighed and dissolved in 10% DMSO (Fisher) diluted with PEG 300 (Acros Organics, NJ) for preparation of the appropriate dosage concentrations. […] Animals were randomly assigned to one of seven groups consisting of 4 to 5 animals per group. Control groups (intact and ORX) were administered vehicle daily. Compound of Formula VIII was administered via oral gavage at doses of 0.01, 0.03, 0.1, 0.3, 0.75, and 1 mg/day to both intact and ORX groups. Where appropriate, animals were castrated on day one of the study. Treatment with compound of Formula VIII began nine days post ORX and was administered daily via oral gavage for fourteen days.
(§1) In addition, ventral prostate, seminal vesicles, and levator ani muscle were removed, individually weighed, normalized to body weight, and expressed as a percentage of intact control. Student's T-test was used to compare individual dose groups to the intact control group. Significance was defined a priori as a P-value <0.05. Ventral prostate and seminal vesicle weights were evaluated as a measure of androgenic activity, whereas levator ani muscle weight was evaluated as a measure of anabolic activity. Blood was collected from the abdominal aorta, centrifuged, and sera were frozen at −80° C. prior to determination of serum hormone levels. Serum luteinizing hormone (LH) and follicle stimulating hormone (FSH) concentrations were determined.
Male Sprague-Dawley rats weighing approximately 200 g were purchased from Harlan Bioproducts for Science (Indianapolis, Ind.). […] Anabolic and androgenic activity of compound of Formula IX in intact animals was evaluated, and the dose response in acutely orchidectomized (ORX) animals was evaluated as well. Regenerative effects of compound of Formula IX in chronically (9 days) ORX rats were also assessed.
The compound was weighed and dissolved in 10% DMSO (Fisher) diluted with PEG 300 (Acros Organics, NJ) for preparation of the appropriate dosage concentrations. […] Intact and ORX animals were randomly assigned to one of seven groups consisting of 4 to 5 animals per group. Control groups (intact and ORX) were administered vehicle daily. Compound of Formula IX was administered via oral gavage at doses of 0.01, 0.03, 0.1, 0.3, 0.75, and 1 mg/day to both intact and ORX groups.
as §1, with “Castrated animals (on day one of the study) were randomly assigned to dose groups (4-5 animals/group) of 0.01, 0.03, 0.1, 0.3, 0.75, and 1 mg/day, for dose-response evaluation. Dosing began nine days post ORX and was administered daily via oral gavage for fourteen days. […] In” for “In”, “As a measure of androgenic activity, ventral” for “Ventral”, “evaluated,” for “evaluated as a measure of androgenic activity,”, “lutenizing” for “luteinizing”
Male Sprague-Dawley rats weighing approximately 200 g were purchased from Harlan Bioproducts for Science (Indianapolis, Ind.).

Compound | levator ani muscle weight (0.01 mg/day) | prostate weight (0.01 mg/day) | seminal vesicle weight (0.01 mg/day) | levator ani muscle weight (0.03 mg/day) | prostate weight (0.03 mg/day) | seminal vesicle weight (0.03 mg/day) | levator ani muscle weight (0.1 mg/day) | prostate weight (0.1 mg/day) | seminal vesicle weight (0.1 mg/day) | levator ani muscle weight (0.3 mg/day) | prostate weight (0.3 mg/day) | seminal vesicle weight (0.3 mg/day) | levator ani muscle weight (0.75 mg/day) | prostate weight (0.75 mg/day) | seminal vesicle weight (0.75 mg/day) | levator ani muscle weight (1 mg/day) | prostate weight (1 mg/day) | seminal vesicle weight (1 mg/day) | ED50 in levator ani | ED50 in prostate | other results
C[C@](O)(COc1ccc(C#N)cc1)C(=O)Nc1ccc(C#N)c(Cl)c1 [VIII, (S)—N-(3-Chloro-4-cyanophenyl)-3-(4-cyanophenoxy)-2-hydroxy-2-methylpropanamide] | 52%±8% | 17%±6% | 10%±3% | 67%±9% | 31%±3% | 13%±4% | 98%±10% | 43%±15% and 43±15% | 21%±6% | 103%±12% | 54%±17% | 43%±8% | 105%±12% | 58%±10% | 51%±9% | 110%±17% and 110±17% | 73%±12% and 73±12% | 69%±14% |  |  | anabolic ratio muscle/prostate weight (castrated rats, 0.01 mg/day): 3.02; anabolic ratio muscle/prostate weight (castrated rats, 0.03 mg/day): 2.13; anabolic ratio muscle/prostate weight (castrated rats, 0.1 mg/day): 2.27; anabolic ratio muscle/prostate weight (castrated rats, 0.3 mg/day): 1.90; anabolic ratio muscle/prostate weight (castrated rats, 0.75 mg/day): 1.83; anabolic ratio muscle/prostate weight (castrated rats, 1 mg/day): 1.51; derived dose that would restore levator ani muscle weight to 100% (castrated rats, oral gavage): 0.1 mg/day
C[C@](O)(COc1ccc(C#N)c(F)c1)C(=O)Nc1ccc(C#N)c(C(F)(F)F)c1 [XIII, (S)—N-(4-cyano-3-(trifluoromethyl)phenyl)-3-(4-cyano-3-fluorophenoxy)-2-hydroxy-2-methylpropanamide] | 71%±4% | 24%±4% | 15%±2% | 101%±15% | 37%±9% | 25%±9% | 125%±20% | 50%±11% | 67%±20% | 126%±14% | 88%±16% | 113%±6% | 151±9% | 132%±16% | 155%±16% | 143±17% | 118±12% | 160%±7% | 0.03 ± 0.01 mg/day | 0.21 ± 0.04 mg/day | ED50 in seminal vesicles: 0.2 ± 0.04 mg/day; Emax in levator ani: 147%±10%; Emax in prostate: 147%±10%; Emax in seminal vesicles: 188%±135%; dose that fully maintained or restored levator ani muscle weight (100% of intact) (oral gavage): 0.03 mg/day
C[C@](O)(COc1ccc(C#N)cc1)C(=O)Nc1ccc(C#N)c(C(F)(F)F)c1 [Compound IX, (S)—N-(4-Cyano-3-(trifluoromethyl)phenyl)-3-(4-cyanophenoxy)-2-hydroxy-2-methylpropanamide] | 59%±6% | 8%±2% | 12%±4% | 85%±9% | 20%±5% | 17%±5% | 112%±10% | 51%±19% | 35%±10% | 122%±16% | 56%±9% | 61%±15% | 127±12% | 80%±28% | 70%±14% | 129.66±2% | 74±12.5% | 80%±6% | 0.02 ± 0.01 mg/day | 0.09 ± 0.07 mg/day | ED50 in seminal vesicles: 0.17 ± 0.05 mg/day; Emax in levator ani: 131%±2%; Emax in prostate: 83%±25%; Emax in seminal vesicles: 85%±11%; dose that fully maintained or restored levator ani muscle weight (100% of intact) (oral gavage): > 0.1 mg/day
